Reference: article PMC10491774 (Cell Death & Disease, 2023)

Target: 6-phosphofructo-2-kinase/fructose-2,6-bisphosphatase 3 (PFKFB3) (Homo sapiens, UniProt Q16875)
Experiment: ADP-Glo kinase assay with purified recombinant human PFKFB3; partial inhibition, only by the Ca2+-free form; counter assay done
Assay type: biochemical

Chain of 6-phosphofructo-2-kinase/fructose-2,6-bisphosphatase 3 (PFKFB3) (Q16875 whole entry): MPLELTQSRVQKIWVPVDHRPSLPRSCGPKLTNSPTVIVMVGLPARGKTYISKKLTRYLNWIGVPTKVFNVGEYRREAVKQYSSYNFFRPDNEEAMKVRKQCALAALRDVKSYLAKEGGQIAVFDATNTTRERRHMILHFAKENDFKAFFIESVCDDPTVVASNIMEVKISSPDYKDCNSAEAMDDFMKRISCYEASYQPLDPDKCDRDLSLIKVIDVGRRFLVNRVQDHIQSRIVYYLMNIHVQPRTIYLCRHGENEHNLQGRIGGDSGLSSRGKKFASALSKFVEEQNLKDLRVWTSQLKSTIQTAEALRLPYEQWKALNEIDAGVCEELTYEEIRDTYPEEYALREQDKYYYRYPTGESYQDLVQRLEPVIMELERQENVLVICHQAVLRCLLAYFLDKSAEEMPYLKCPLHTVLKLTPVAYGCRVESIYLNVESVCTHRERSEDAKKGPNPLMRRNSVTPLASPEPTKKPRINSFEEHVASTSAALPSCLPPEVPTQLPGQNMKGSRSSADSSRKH

Structure (SMILES): O=C(O)CN(CC(=O)O)c1ccccc1OCCOc1ccccc1N(CC(=O)O)CC(=O)O [BAPTA, 1,2-Bis-(o-Aminophenoxy)-ethane-N,N,N’,N’-tetraacetic acid]
- IC50: 110 µM
